Measured values reported in PMC7578061, “Potent inhibition of tumour cell proliferation and immunoregulatory function by mitochondria-targeted atovaquone” (Scientific Reports, 2020).

Experiments:
[1] = tested on: CD4+ T cells from SMARTA triple reporter mice; experiment: In vitro differentiation of CD4+ T regulatory cells, flow cytometry; assay type: cell-based, mouse; settings: six days of culture; for Treg differentiation and/or survival: up to 60 µM; for Foxp3+ Treg differentiation and/or survival: varying concentrations; for Teff cell IFNγ production: dose-dependent
Description: Recent reports indicate that selective targeting and inhibiting of mitochondrial complex III mitigate and reverse immunosuppression by Treg cells, promoting the function of Teff cells[15],[17]. […] After six days, cells were stained to assess viability, phenotype, and function using flow cytometry.
Figure 5 In vitro differentiation of CD4^+ T regulatory cells under varying concentrations of Mito-ATOs and controls. After six days of culture, cells were stained for flow cytometry analysis. (left) Live/dead staining to assess the percentage of live CD4 + T cells within the lymphocyte gate. (middle) Teff cell function is shown as the frequency of IFNγ-YFP positive cells within the live CD4^+ T cells. (right) The percentage of Treg cells is shown as the frequency of FoxP3^+CD25^+ cells within the live CD4^+ T cells. […] I assigned them to Mito10-ATO from the label under the bar charts above. / Panel A contour plots: no measure is printed with the gate percentages. Only the axes CD25 and FoxP3 are printed.
To differentiate CD4^+ T cells into a T regulatory cell phenotype, splenocytes from SMARTA triple-reporter mice were processed and the red blood cell lysed using an ACK (ammonium-chloride-potassium) lysis buffer. The cells were then activated with 1 μg/mL GP61–80 peptide (GenScript, Piscataway, NJ) and 5 ng/mL TGF-β1 (Shenandoah Biotechnology, Inc., Warwick, PA). […] Cells were cultured for six days and split once cells reached confluency; cells were replenished with IL-2 and compound accordingly. After six days in culture, cells were stained to assess the viability and phenotypic analysis via flow cytometry. LIVE/DEAD fixable violet or aqua dead cell stain (Invitrogen, Carlsbad, CA) was used to assess cell viability. The following antibodies were used for flow cytometry staining: PercP anti-mouse CD4 (clone: GK1.5; BioLegend, San Diego, CA), APC/Cy7 anti-mouse CD25 (clone: PC61; BioLegend), and PE anti-mouse FOXP3 (clone: FJK-16S; eBioscience, San Diego, CA). Flow cytometry data were acquired using a BD LSRII (BD Biosciences, CA) flow cytometer and analysed using FlowJo (Treestar, Inc., Ashland, OR).

[2] = tested on: A549 human lung cancer cells; experiment: IncuCyte cell proliferation (cell confluence), A549; assay type: cell-based; settings: read-out: IC50, inhibition of cell proliferation (cell confluence)
Description: (§1) Previous reports provide evidence for enhanced uptake of several mitochondria-targeted cationic agents into cancer cells as compared with non-transformed control cells[11]–[14].
(§2) The following cell lines were obtained from the American Type Culture Collection (Manassas, VA), where they were regularly authenticated: MiaPaCa-2 (ATCC#CRL-1420, human pancreatic cancer), MDA-MB-231 (ATCC#HTB-26, human breast cancer), A549 (ATCC#CCL-185, human lung cancer), LLC (ATCC#CLR-1642, mouse lung cancer). LKR13 mouse lung cancer cells were a gift from Dr. Jonathan M. Kurie (MD Anderson Cancer Center, Houston, TX)[30]. All cell lines were grown at 37 °C in 5% CO2. MiaPaCa-2 and MDA-MB-231 cells were maintained in DMEM medium (Thermo Fisher Scientific, #11965) supplemented with 10% foetal bovine serum. A549, LLC, and LKR13 cells were maintained in RPMI 1640 medium (Thermo Fisher Scientific, #11875), supplemented with 10% foetal bovine serum. All cells were stored in liquid nitrogen and used within 20 passages after thawing.
(§3) The IncuCyte Live-Cell Imaging system (IncuCyte Essen Bioscience Inc., Ann Arbor, MI) was used to monitor cell proliferation[11]–[13]. As shown in previous publications[11],[12], this imaging system is probe-free and noninvasive, and enables continuous monitoring of cell confluence over several days. […]

[3] = tested on: LLC mouse lung cancer cells; experiment: IncuCyte cell proliferation (cell confluence), LLC; assay type: cell-based; settings: Lewis lung carcinoma, read-out: IC50, inhibition of cell proliferation (cell confluence)
Description: as §1, §2, §3

MiaPaCa-2 cells = experiment: IncuCyte cell proliferation (cell confluence), MiaPaCa-2; assay type: cell-based, human; settings: for IC50: Homo sapiens, MIA PaCa-2, MiaPaCa-2 cells, confluence as control groups reach 98% confluency, read-out: IC50, inhibition of cell proliferation (cell confluence); for Antiproliferative effect compared with corresponding Mito-ATO analogs: MiaPaCa-2 cells, Figure S3
Procedure: as §2
The IncuCyte Live-Cell Imaging system (IncuCyte Essen Bioscience Inc., Ann Arbor, MI) was used to monitor cell proliferation[11]–[13]. As shown in previous publications[11],[12], this imaging system is probe-free and noninvasive, and enables continuous monitoring of cell confluence over several days. The increase in the percentage of cell confluence was used as a surrogate marker of cell proliferation. In a 96-well plate, cells were plated at 1,000 cells per well in triplicates and left to adhere overnight.

[4] = tested on: LKR13 mouse lung cancer cells; experiment: IncuCyte cell proliferation (cell confluence), LKR13; assay type: cell-based; settings: read-out: IC50, inhibition of cell proliferation (cell confluence)
Description: as §1, §2, §3

[5] = tested on: MDA-MB-231 human breast cancer cells; experiment: IncuCyte cell proliferation (cell confluence), MDA-MB-231; assay type: cell-based; settings: MDA-MB-231 cells, read-out: IC50, inhibition of cell proliferation (cell confluence)
Description: as §1, §2, §3

[6] = molecular target: T1, mitochondrial complex III (Homo sapiens, UniProt P00156+P47985); experiment: Seahorse complex III-driven OCR in permeabilized MiaPaCa-2 cells; assay type: cell-based; parameters: carried out on acutely permeabilized cells in the presence of different mitochondrial substrates; endogenous in cells; host or cells: MiaPaCa-2 (A7); settings: for IC50: MiaPaCa-2 cells treated 24 h, duroquinol, read-out: Complex III IC50 (AA-inhibitable OCR); for Inhibition of complex III-induced oxygen consumption: MiaPaCa-2 cells, 24 h
Procedure: The mitochondrial complex activities were assessed by measuring the oxygen consumption rate (OCR) using the Seahorse technique[6],[11]–[14]. MiaPaCa-2 cells were treated separately with Mito-ATO analogs at different concentrations for 24 h and OCR was measured.
Figure 2 Effects of Mito-ATO analogs on the oxygen consumption induced by mitochondrial complexes I and III. […] MiaPaCa-2 cells were treated with Mito-ATO for 24 h. Relative complex I (1.5 mM malate, 10 mM pyruvate, 10 mM ADP)-driven OCR (left) and relative complex III (0.5 mM duroquinol, 10 mM ADP)-driven OCR (right) were monitored by XF-96 analyser. Either Rot (complex I inhibitor) or antimycin A (AA, complex III inhibitor) was acutely added and OCR assayed immediately. […] Dashed lines represent the fitting curves used for determination of the IC50 values. (n.a., not applicable).
(§4) Mitochondrial bioenergetic function was measured in real time using the Seahorse XF 96 Extracellular Flux Analyzer (Agilent, North Billerica, MA)[11]–[13],[22]. The OCR-based assessment of mitochondrial complex activities was carried out on acutely permeabilized cells in the presence of different mitochondrial substrates, i.e., pyruvate/malate, for complex I and duroquinol for complex III[11],[14],[31],[32]. Rot, malonate, and antimycin A (Sigma-Aldrich, St. Louis, MO) were used as specific inhibitors of mitochondrial complexes I, II, and III, respectively. Briefly, cells that were intact after treatments were immediately permeabilized using the Seahorse XF Plasma Membrane Permeabilizer (Agilent). The mitochondrial complex I-driven OCR was assayed in mannitol and sucrose buffer[31] containing 10 mM pyruvate and 1.5 mM malate (substrates for complex I) and 10 mM malonate (which inhibits complex II activities). The mitochondrial complex III-driven OCR was assayed in mannitol and sucrose buffer containing 0.5 mM duroquinol (substrate for complex III) and 1 µM Rot and 10 mM malonate (which inhibit both complex I and II activities). The mitochondrial complex-dependent oxygen consumption (calculated as Rot- or antimycin A-inhibitable OCR equals basal OCR less OCR after Rot or antimycin A injection) was plotted against concentrations to determine the IC50 values.

[7] = molecular target: T2, mitochondrial complex III (Mus musculus, UniProt P00158+Q9CR68); experiment: Seahorse complex III-driven OCR in LLC cells; assay type: cell-based
T2 construct: carried out on acutely permeabilized cells in the presence of different mitochondrial substrates; endogenous in cells; host or cells: LLC (A11); LKR13 (A13)
Procedure: (§5) Dashed lines represent the fitting curves used for determination of the IC50 values.
as §4, with “The mitochondrial complex III-driven OCR was assayed in mannitol and sucrose buffer containing 0.5 mM duroquinol (substrate for complex III) and 1 µM Rot and 10 mM malonate (which inhibit both complex I and II activities).” left out

[8] = molecular target: T1, mitochondrial complex III; experiment: Seahorse complex III-driven OCR in A549 cells; assay type: cell-based; parameters: carried out on acutely permeabilized cells in the presence of different mitochondrial substrates; endogenous in cells; host or cells: A549 (A9)
Procedure: as §5
as §4, with “The mitochondrial complex III-driven OCR was assayed in mannitol and sucrose buffer containing 0.5 mM duroquinol (substrate for complex III) and 1 µM Rot and 10 mM malonate (which inhibit both complex I and II activities).” left out

[9] = molecular target: T2, mitochondrial complex III; experiment: Seahorse complex III-driven OCR in LKR13 cells; assay type: cell-based
Procedure: as §5
as §4, with “The mitochondrial complex III-driven OCR was assayed in mannitol and sucrose buffer containing 0.5 mM duroquinol (substrate for complex III) and 1 µM Rot and 10 mM malonate (which inhibit both complex I and II activities).” left out

Compound: O=C1C(O)=C([C@H]2CC[C@H](c3ccc(Cl)cc3)CC2)C(=O)c2ccccc21 [ATO, Atovaquone]
- Treg differentiation and/or survival [1]: did not inhibit
- IC50 [2]: 16000 nM
- IC50 [3]: 13000 nM
- IC50 (MiaPaCa-2 cells): 18000 nM
- IC50 [4]: 10000 nM
- IC50 [5]: 18000 nM

Compound: CCCCOC1=C([C@H]2CC[C@H](c3ccc(Cl)cc3)CC2)C(=O)c2ccccc2C1=O [Butyl-ATO]
- Treg differentiation and/or survival [1]: did not inhibit
- Antiproliferative effect compared with corresponding Mito-ATO analogs (MiaPaCa-2 cells): much less effective

Compound: CCCCCCCCCCOC1=C([C@H]2CC[C@H](c3ccc(Cl)cc3)CC2)C(=O)c2ccccc2C1=O [Decyl-ATO]
- Treg differentiation and/or survival [1]: did not inhibit
- Antiproliferative effect compared with corresponding Mito-ATO analogs (MiaPaCa-2 cells): much less effective

Compound: O=C1C(OCCCC[P+](c2ccccc2)(c2ccccc2)c2ccccc2)=C([C@H]2CC[C@H](c3ccc(Cl)cc3)CC2)C(=O)c2ccccc21 [Mito4-ATO]
- Foxp3+ Treg differentiation and/or survival [1]: inhibited
- Teff cell IFNγ production [1]: promoted
- IC50 (MiaPaCa-2 cells): 180 nM
- IC50 [6]: 580 nM

Compound: O=C1C(OCCCCCCCCCC[P+](c2ccccc2)(c2ccccc2)c2ccccc2)=C([C@H]2CC[C@H](c3ccc(Cl)cc3)CC2)C(=O)c2ccccc21 [Mito10-ATO]
- Foxp3+ Treg differentiation and/or survival [1]: inhibited
- Teff cell IFNγ production [1]: promoted
- IC50 [7]: 500 nM
- IC50 [8]: 1000 nM
- IC50 [2]: 140 nM
- IC50 [3]: 460 nM
- IC50 (MiaPaCa-2 cells): 220 nM
- IC50 [4]: 500 nM
- IC50 [5]: 230 nM
- IC50 [9]: 2100 nM
- IC50 [6]: 780 nM

Compound: O=C1C(OCCCCCCCCCCCC[P+](c2ccccc2)(c2ccccc2)c2ccccc2)=C([C@H]2CC[C@H](c3ccc(Cl)cc3)CC2)C(=O)c2ccccc21 [Mito12-ATO]
- Foxp3+ Treg differentiation and/or survival [1]: did not appreciably inhibit
- Inhibition of complex III-induced oxygen consumption [6]: did not inhibit

Compound: O=C1C(OCCCCCCCCCCCCCCCC[P+](c2ccccc2)(c2ccccc2)c2ccccc2)=C([C@H]2CC[C@H](c3ccc(Cl)cc3)CC2)C(=O)c2ccccc21 [Mito16-ATO]
- IC50 (MiaPaCa-2 cells): 3000 nM
- Inhibition of complex III-induced oxygen consumption [6]: did not inhibit
